Measurements from patent publication US4162324A, “Antibiotics 890A1 and 890A3” (Merck & Co., Inc., priority 1977, dated 1979).

How the values were obtained:
[1] = test system: Pseudomonas aeruginosa MB-979; assay: In vitro antibacterial spectrum profile, zone of inhibition; assay type: cell-based; details: MB979, 182 μg/ml, read-out: Inhib. Zone Diam.
[2] = test system: Escherichia coli MB-1418; assay: as above; assay type: cell-based; details: MB1418, 182 μg/ml, read-out: Inhib. Zone Diam.
[3] = test system: Vibrio percolans resistant to ceph. C MB-2566; assay: as above; assay type: cell-based; details: Comamonas terrigena, read-out: Inhib. Zone Diam.
[4] = test system: Proteus vulgaris MB-1012; assay: as above; assay type: cell-based; details: MB1012, 182 μg/ml, read-out: Inhib. Zone Diam.
[5] = test system: Brucella bronchiseptica ATCC 4617; assay: microbe, parasite or virus in culture; assay type: cell-based; details: Bordetella bronchiseptica, ATCC4617, read-out: Inhib. Zone Diam.
[6] = test system: Vibrio percolans ATCC 8461; assay: In vitro antibacterial spectrum profile, zone of inhibition; assay type: cell-based; details: Comamonas terrigena, ATCC8461; 182 μg/ml; read-out: Inhib. Zone Diam.
[7] = test system: Escherichia coli ATCC 9637; assay: In vitro antibacterial spectrum profile, zone of inhibition, synthetic medium; assay type: cell-based; details: ATCC9637, 182 μg/ml, synthetic medium, read-out: Inhib. Zone Diam.
[8] = test system: Pseudomonas stutzeri ATCC 11607; assay: In vitro antibacterial spectrum profile, zone of inhibition; assay type: cell-based; details: Stutzerimonas stutzeri, ATCC11607; 182 μg/ml; read-out: Inhib. Zone Diam.
[9] = test system: penicillinase; assay: Resistance to degradation by penicillinase; assay type: biochemical; details: compared with 890A1
Protocol: Bio-Gel fraction 63 is combined with fractions 61, 66 and 67 from the Bio-Gel column. These four combined fractions have a total of 235 absorbance units at 300 nm. To this is added 0.2 ml. of 1M Tris-HCl buffer, ph 7.5, and 0.2 ml. of penicillinase [Difco "Bacto-Penase," containing 500,000 units per ml. (1000 LU/ml.) wherein the term LU refers to Levy units; 1,000 LU will inactivate 500,000 units of penicillin G].
After 113 minutes at 23° C., an additional 0.2 ml. of penicillinase is added. After an additional 7 hours at room temperature, another 0.2 ml. of penicillinase is added, and after an additional two hours at room temperature, the reaction mixture is chilled in an ice bath. The terminated reaction mixture is diluted to 15 ml. by addition of 5 ml. of deionized water. The absorbance of the diluted reacted preparation is 6.3 at 300 nm of which 2.64 is extinguishable by reaction with cysteine.

[10] = test system: Xanthomonas vesicatoria MB-815; assay: In vitro antibacterial spectrum profile, zone of inhibition; assay type: cell-based; details: MB815, 182 μg/ml, read-out: Inhib. Zone Diam.
[11] = test system: Streptococcus faecalis MB-753; assay: as above; assay type: cell-based; details: Enterococcus faecalis, MB753; 182 μg/ml; read-out: Inhib. Zone Diam.
[12] = test system: Proteus mirabilis MB-3126; assay: as above; assay type: cell-based; details: MB3126, 182 μg/ml, read-out: Inhib. Zone Diam.
[13] = test system: Staphlococcus aureus ATCC 6538 P; assay: as above; assay type: cell-based; details: read-out: Inhib. Zone Diam.
[14] = Electrophoresis; assay type: physicochemical; details: neutral pH
[15] = test system: Staphylococcus aureus MB-698; assay: In vitro antibacterial spectrum profile, zone of inhibition; assay type: cell-based; details: MB698, read-out: Inhib. Zone Diam.
[16] = test system: Streptococcus faecium MB-2820; assay: as above; assay type: cell-based; details: Enterococcus faecium, MB2820; 182 μg/ml; read-out: Inhib. Zone Diam.
[17] = test system: Proteus vulgaris (episome) MB-2112; assay: as above; assay type: cell-based; details: 182 μg/ml, read-out: Inhib. Zone Diam.
[18] = test system: Proteus vulgaris ATCC 21100; assay: as above; assay type: cell-based; details: ATCC21100, 182 μg/ml, read-out: Inhib. Zone Diam.
Protocol: (§1) The test to determine the antibiotic spectrum profile is carried out by application of a 0.015 ml. droplet on the surface of a 100×15 mm. petri plate containing 5 ml. of seeded nutrient agar and 0.2% yeast extract. The antibiotic 890A1 is tested at a level of 33 μg/ml. and the antibiotic 890A3 is tested at a level of 182 μg/ml.

[19] = test system: Bacillus sp. MB-633; assay: as above; assay type: cell-based; details: SP.MB633, 182 μg/ml, read-out: Inhib. Zone Diam.
Protocol: as §1

[20] = test system: Corynebacterium pseudoidph. ATCC 9742; assay: as above; assay type: cell-based; details: ATCC9742, 182 μg/ml, read-out: Inhib. Zone Diam.
Protocol: as §1

[21] = test system: Alcaligenes faecalis ATCC 213; assay: as above; assay type: cell-based; details: ATCC213, 182 μg/ml, read-out: Inhib. Zone Diam.
Protocol: as §1

[22] = test system: Vibrio percolans ATCC 8461; assay: Bioassay, agar plate disc-diffusion method; details: 890A1 value defined as standard
[23] = test system: Vibrio percolans ATCC 8461 + 2 × 10^5 units/ml penicillinase; assay: In vitro antibacterial spectrum profile, zone of inhibition, with penicillinase; assay type: cell-based; details: Comamonas terrigena, ATCC8461, 182 μg/ml, read-out: Inhib. Zone Diam.
[24] = test system: Streptococcus agalactiae MB-2875; assay: In vitro antibacterial spectrum profile, zone of inhibition; assay type: cell-based; details: MB2875, 182 μg/ml, read-out: Inhib. Zone Diam.
[25] = test system: Klebsiella pneumoniae MB-1264; assay: as above; assay type: cell-based; details: MB1264, 182 μg/ml, read-out: Inhib. Zone Diam.
[26] = test system: Erwinia atroseptica ATCC 4466; assay: as above; assay type: cell-based; details: Pectobacterium atrosepticum, ATCC4466; 182 μg/ml; read-out: Inhib. Zone Diam.
[27] = test system: Aerobacter aerogenes MB-835; assay: as above; assay type: cell-based; details: Klebsiella aerogenes, MB835; 182 μg/ml; read-out: Inhib. Zone Diam.
[28] = test system: Pseudomonas aeruginosa MB-2824; assay: as above; assay type: cell-based; details: MB2824, 182 μg/ml, read-out: Inhib. Zone Diam.
[29] = test system: Salmonella gallinarum MB-1287; assay: as above; assay type: cell-based; details: Salmonella enterica, 182 μg/ml, read-out: Inhib. Zone Diam.
[30] = test system: Serratia marcescens ATCC 990; assay: as above; assay type: cell-based; details: ATCC990, 182 μg/ml, read-out: Inhib. Zone Diam.
[31] = test system: Sarcina lutea ATCC 9341; assay: as above; assay type: cell-based; details: Micrococcus luteus, ATCC9341; 182 μg/ml; read-out: Inhib. Zone Diam.
[32] = test system: Bacillus subtilis ATCC 6633; assay: as above; assay type: cell-based; details: ATCC6633, 182 μg/ml, read-out: Inhib. Zone Diam.

Compound: CC(=O)NCCSC1=C(C(=O)O)N2C(=O)C(C(C)O)C2C1 (centres unmarked) [Antibiotic 890A3]
- zone of inhibition at 182 µg/mL [1]: 0 mm
- zone of inhibition at 182 µg/mL [2]: 32 mm
- zone of inhibition at 182 µg/mL [3]: 34 mm
- zone of inhibition at 182 µg/mL [4]: 24 mm
- zone of inhibition at 182 µg/mL [5]: 27 mm
- zone of inhibition at 182 µg/mL [6]: 40 mm
- zone of inhibition at 182 µg/mL [7]: 29 mm
- zone of inhibition at 182 µg/mL [8]: 32 mm
- resistance to degradation by penicillinase [9]: relatively higher resistance
- zone of inhibition at 182 µg/mL [10]: 26 mm
- zone of inhibition at 182 µg/mL [11]: 17 mm
- zone of inhibition at 182 µg/mL [12]: 30 mm
- zone of inhibition at 182 µg/mL [13]: 36 mm
- movement on electrophoresis [14]: acidic substance which moves to the positive pole on electrophoresis at neutral pH
- zone of inhibition at 182 µg/mL [15]: 34 mm
- zone of inhibition at 182 µg/mL [16]: 24 mm
- zone of inhibition at 182 µg/mL [17]: 38 mm
- zone of inhibition at 182 µg/mL [18]: 34 mm
- zone of inhibition at 182 µg/mL [19]: 37 mm
- zone of inhibition at 182 µg/mL [20]: 36 mm
- zone of inhibition at 182 µg/mL [21]: 34 mm
- antibiotic potency [22]: 31 units per HAEA300 unit
- zone of inhibition at 182 µg/mL [23]: 35 mm
- zone of inhibition at 182 µg/mL [24]: 30 mm
- zone of inhibition at 182 µg/mL [25]: 33 mm
- zone of inhibition at 182 µg/mL [26]: 30 mm
- zone of inhibition at 182 µg/mL [27]: 30 mm
- zone of inhibition at 182 µg/mL [28]: 32 mm
- zone of inhibition at 182 µg/mL [29]: 33 mm
- zone of inhibition at 182 µg/mL [30]: 28 mm
- zone of inhibition at 182 µg/mL [31]: 44 mm
- zone of inhibition at 182 µg/mL [32]: 40 mm
